Active and inactive are the calls of the source. The rule behind the calls is not given here.
Key:
[1] = Inhibition of baker's yeast alpha-glucosidase using p-nitrophenyl-alpha-D-glucopyranoside as substrate after 30 mins by spectrophotometric analysis; design: species or system Saccharomyces cerevisiae
Saccharomyces cerevisiae [2] = experiment: Potency index, ratio of acarbose IC50 to compound IC50 for baker's yeast alpha-glucosidase
Saccharomyces cerevisiae [3] = experiment: Competitive inhibition of baker's yeast alpha-glucosidase using p-nitrophenyl-alpha-D-glucopyranoside as substrate at 1 to 2 uM preincubated for 30 mins followed by substrate addition by Lineweaver-Burk plot analysis
Saccharomyces cerevisiae [4] = experiment: Mixed-type inhibition of baker's yeast alpha-glucosidase using p-nitrophenyl-alpha-D-glucopyranoside as substrate at 4 to 6 uM preincubated for 30 mins followed by substrate addition by Lineweaver-Burk plot analysis
Saccharomyces cerevisiae [5] = experiment: Competitive inhibition of baker's yeast alpha-glucosidase using p-nitrophenyl-alpha-D-glucopyranoside as substrate at 1.5 to 2 uM preincubated for 30 mins followed by substrate addition by Lineweaver-Burk plot analysis

Row | SMILES | IC50 [1] [µM] | also measured
1 | COc1ccc(-c2coc3c(C/C=C(\C)CCC=C(C)C)c(OC)cc(O)c3c2=O)cc1 | > 100 | –
2 | CC(C)=CCc1cc(C(=O)/C=C/c2ccc(O)cc2)c(O)cc1O [BROUSSOCHALCONE B] | 5.3 | –
3 | CC(C)=CCc1c(O)cc(O)c2c(=O)c(-c3ccc(O)cc3)coc12 | > 100 | –
4 | O=c1c(-c2ccc(O)cc2)coc2cc(O)cc(O)c12 [GENISTEIN] | 50.1 | –
5 | COc1ccc(/C=C/C(=O)c2cc(CC=C(C)C)c(OC)cc2OC)cc1 | > 100 | –
6 | COc1ccc(-c2coc3c(CC=C(C)C)c(OC)cc(OC)c3c2=O)cc1 | > 100 | –
7 | COc1ccc(-c2coc3c(C/C=C(\C)CCC=C(C)C)c(OC)cc(OC)c3c2=O)cc1 | > 100 | –
8 | CC(C)=CCC/C(C)=C/Cc1c(O)cc(O)c2c(=O)c(-c3ccc(O)cc3)coc12 | 6.26 | inhibition (Saccharomyces cerevisiae [4]): Active
9 | CC(C)=CCC/C(C)=C/Cc1c(O)c(CC=C(C)C)cc(C(=O)/C=C/c2ccc(O)cc2)c1O | 11.5 | –
10 | O=c1c(O)c(-c2ccc(O)c(O)c2)oc2cc(O)cc(O)c12 [QUERCETIN] | 11 | –
11 | CC(C)=CCC/C(C)=C/Cc1cc(C(=O)/C=C/c2ccc(O)cc2)c(O)cc1O | 16.3 | –

Further lines, with some results ahead:

Row | IC50 [1] [µM] | SMILES | also measured
12 | > 100 | O=C(/C=C/c1ccc(O)cc1)c1ccc(O)cc1O [ISOLIQUIRITIGENIN] | –
13 | 4.38 | CC(C)=CCc1c(O)cc(O)c2c(=O)c(O)c(-c3ccc(O)c(O)c3)oc12 | –
14 | 9 | CC(C)=CCC/C(C)=C/Cc1cc(C(=O)/C=C/c2ccc(O)cc2)c(O)c(CC=C(C)C)c1O | –
15 | 51.3 | C[C@H]1O[C@H](O[C@H]2[C@H](O)[C@@H](O)[C@@H](O[C@H]3[C@H](O)[C@@H](O)C(O)O[C@@H]3CO)O[C@@H]2CO)[C@H](O)[C@@H](O)[C@@H]1N[C@H]1C=C(CO)[C@@H](O)[C@H](O)[C@H]1O (stereo partly drawn) [ACARBOSE] | –
16 | > 100 | COc1ccc(-c2coc3c(CC=C(C)C)c(OC)cc(O)c3c2=O)cc1 | –
17 | 6.9 | CC(C)=CCc1cc(C(=O)/C=C/c2ccc(O)cc2)c(O)c(CC=C(C)C)c1O [MEDICAGENIN] | –
18 | 0.9 | CC(C)=CCC/C(C)=C/Cc1cc(C(=O)/C=C/c2ccc(O)cc2)c(O)c(C/C=C(\C)CCC=C(C)C)c1O | Ratio IC50 (Saccharomyces cerevisiae [2]): 50; inhibition (Saccharomyces cerevisiae [3]): Active
19 | 1.15 | CC(C)=CCC/C(C)=C/Cc1c(O)cc(O)c2c(=O)c(O)c(-c3ccc(O)c(O)c3)oc12 | inhibition (Saccharomyces cerevisiae [5]): Active
